Values quoted from earlier work, collected in patent publication EP2428201A1, “Oral administration of nucleoside monophosphates” (Merck Serono S.A., priority 2010, dated 2012).

Conditions: administered orally, compared to the drug given by injection

Nc1nc(Cl)nc2c1ncn2[C@H]1C[C@H](O)[C@@H](CO)O1 [cladribine, 2-chloro-2'-deoxyadenosine]
bioavailability: reduced bioavailability
